Reference: ChEMBL document CHEMBL3739373, “1,2,3-Triazole derivatives as antitubercular agents: synthesis, biological evaluation and molecular docking study” (Medchemcomm, 2015)
≈ marks a conversion by molar mass, not a printed value.

How the values were obtained:
[1] = Cytotoxicity against human THP1 cells assessed as growth inhibition after 48 hrs by MTT assay; assay type: cell-based, THP-1
[2] = Selectivity index, ratio of GI50 for human A549 cells to MIC for dormant phase Mycobacterium tuberculosis H37Ra ATCC 25177; assay type: toxicity, cell-based; settings: read-out: Selectivity Index
[3] = system: Mycobacterium tuberculosis; experiment: Antitubercular activity against dormant phase Mycobacterium tuberculosis H37Ra ATCC 25177 incubated for 12 days by XTT reduction menadione assay; assay type: functional, organism-based; settings: 288 h
A549 = experiment: (§1) Cytotoxicity against human A549 cells assessed as growth inhibition after 48 hrs by MTT assay; assay type: cell-based; settings: a549, 48 h
[4] = as §1; assay type: cell-based; settings: A549 cells
[5] = Selectivity index, ratio of GI50 for human PANC1 cells to MIC for dormant phase Mycobacterium tuberculosis H37Ra ATCC 25177; assay type: toxicity, cell-based, PANC-1; settings: read-out: Selectivity Index
[6] = Selectivity index, ratio of GI50 for human THP1 cells to MIC for dormant phase Mycobacterium tuberculosis H37Ra ATCC 25177; assay type: toxicity, cell-based, THP-1; settings: read-out: Selectivity Index
[7] = Cytotoxicity against human PANC1 cells assessed as growth inhibition after 48 hrs by MTT assay; assay type: cell-based, PANC-1
[8] = Antioxidant activity assessed as DPPH radical scavenging activity after 30 mins by spectrophotometric analysis; assay type: physicochemical

## Clc1cc(Cl)c(OCc2cn(Cc3ccc(Br)cc3)nn2)c(Cl)c1
[1]; THP1 cells
  GI50 at 48 h: 58.7 µg/mL (≈ 131 µM)
[1]; thp-1, 48 h
  GI90: > 100 µg/mL
[2]
  selectivity ratio: > 3.6
[3]
  IC50: 0.9 µg/mL (≈ 2.01 µM)
  MIC: 27.8 µg/mL (≈ 62.1 µM)
A549
  GI90: > 100 µg/mL
[4]
  GI50 at 48 h: > 100 µg/mL
[5]
  selectivity ratio: > 3.6
[6]
  selectivity ratio: 2.1
[7]; PANC1 cells
  GI50 at 48 h: > 100 µg/mL
[7]; panc-1, 48 h
  GI90: > 100 µg/mL
[8]
  IC50: 14 µg/mL (≈ 31.3 µM)
